Reference: ChEMBL document CHEMBL5532764, “Identification of SARS-CoV-2 Mpro inhibitors through deep reinforcement learning for de novo drug design and computational chemistry approaches” (RSC Med Chem, 2024)

The compounds below were run against Replicase polyprotein 1ab (Severe acute respiratory syndrome coronavirus 2, UniProt P0DTD1).
Compound `O=C(c1cccnc1)N1CCN(Cc2cc(Cl)cc(Cl)c2OC(F)F)CC1` has an IC50 of 63 µM. In the case of `O=C(c1cccnc1)N1CCN(Cc2cccc(Cl)c2Cl)CC1`, the IC50 is reported as 63.5 µM.

These compounds were tested against Procathepsin L (Homo sapiens, UniProt P07711) (assay: Inhibition of human liver Cathepsin L using Z-Phe-Arg7-amido-4-methylcoumarin hydrochloride as substrate by FRET assay).
Sequence of Procathepsin L (P07711 whole entry): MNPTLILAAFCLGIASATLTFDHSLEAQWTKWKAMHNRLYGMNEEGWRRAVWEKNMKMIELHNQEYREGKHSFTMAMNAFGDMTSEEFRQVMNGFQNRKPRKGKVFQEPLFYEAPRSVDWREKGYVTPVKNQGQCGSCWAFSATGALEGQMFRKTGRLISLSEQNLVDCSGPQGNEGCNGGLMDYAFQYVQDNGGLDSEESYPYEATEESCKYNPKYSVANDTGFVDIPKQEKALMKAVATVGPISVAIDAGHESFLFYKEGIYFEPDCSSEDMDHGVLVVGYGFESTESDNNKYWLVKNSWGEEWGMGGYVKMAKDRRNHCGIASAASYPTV
`Cc1cncc(CC(=O)N2CCC[C@H]2c2cccc(Cl)c2)c1` showed an IC50 greater than 125 µM. With `O=C1N(Cc2ccccc2Cl)CCN1c1cncc2ccc(Cl)cc12` the IC50 was greater than 125 µM. With `O=C(c1cncc2ccc(F)cc12)N1CCN(Cc2ccc(Cl)cc2Cl)CC1` the IC50 was greater than 125 µM. For `N#Cc1ccccc1CN1CCCN(C(=O)c2cncc(Cl)c2)CC1`, the IC50 was greater than 125 µM. With `O=C(c1cccnc1)N1CCN(Cc2cc(Cl)cc(Cl)c2OC(F)F)CC1` the IC50 was greater than 125 µM. `O=C(c1cccnc1)N1CCN(Cc2cccc(Cl)c2Cl)CC1` was tested, and the IC50 was greater than 125 µM. With `O=C(c1cncc(Cl)c1)N1CCCN(Cc2ccccc2Cl)CC1` the IC50 was greater than 125 µM. `O=C1N[C@@H](Cc2cc(Cl)ccc2F)C(=O)N1c1cncc(F)c1` gave an IC50 greater than 125 µM. `O=C(Nn1cnc2c(F)cc(F)cc21)C1COc2cc(Cl)c(Cl)cc21` (racemic) gave an IC50 of 103 µM. `O=C1N(Cc2ccc(Cl)cc2Cl)CCN1c1cncc2ccccc12` showed an IC50 greater than 125 µM. Work on `Cc1cncc(CC(=O)N2CCc3cc(Cl)c(Cl)cc3C2)c1` yielded an IC50 greater than 125 µM. For `O=C(Cc1cccnc1)N1CCc2c(Cl)cc(Cl)cc2C1`, the IC50 was greater than 125 µM.
